The values that follow are results of earlier work, collected in US20060148877A1, “Pharmaceutical formulations of celcoxib” (TransForm Pharmaceuticals, Inc., priority 2002, published 2006).

The conditions of the data set: commercially available form (CELEBREX), neutral molecule.

The structures appear in SMILES notation.

As to `Cc1ccc(-c2cc(C(F)(F)F)nn2-c2ccc(S(N)(=O)=O)cc2)cc1` [celecoxib, 4-[5-(4-methylphenyl)-3-(trifluoromethyl)-1H-pyrazol-1-yl]benzenesulfonamide], the solubility in water entry is given as “essentially insoluble in water”.
